In patent US10844074B2, “Heterocycle compounds and uses thereof” (ZHEJIANG JIANFENG-YIEN BIOTECHNOLOGY CO., LTD., priority 2015, dated 2020):

target: BTK (Homo sapiens, UniProt Q06187); experiment: BTK Enzyme Assay; type: biochemical; conditions: 1 uM compound; read-out: BTK (% inh @ 1 uM)
Protocol: The following TABLE II lists compounds representative of the invention and their activity in BTK assays. In these assays, the following grading was used: A: >30% inhibition @1 μM; B: <30% inhibition @1 μM.

Chain of BTK (Q06187 whole entry): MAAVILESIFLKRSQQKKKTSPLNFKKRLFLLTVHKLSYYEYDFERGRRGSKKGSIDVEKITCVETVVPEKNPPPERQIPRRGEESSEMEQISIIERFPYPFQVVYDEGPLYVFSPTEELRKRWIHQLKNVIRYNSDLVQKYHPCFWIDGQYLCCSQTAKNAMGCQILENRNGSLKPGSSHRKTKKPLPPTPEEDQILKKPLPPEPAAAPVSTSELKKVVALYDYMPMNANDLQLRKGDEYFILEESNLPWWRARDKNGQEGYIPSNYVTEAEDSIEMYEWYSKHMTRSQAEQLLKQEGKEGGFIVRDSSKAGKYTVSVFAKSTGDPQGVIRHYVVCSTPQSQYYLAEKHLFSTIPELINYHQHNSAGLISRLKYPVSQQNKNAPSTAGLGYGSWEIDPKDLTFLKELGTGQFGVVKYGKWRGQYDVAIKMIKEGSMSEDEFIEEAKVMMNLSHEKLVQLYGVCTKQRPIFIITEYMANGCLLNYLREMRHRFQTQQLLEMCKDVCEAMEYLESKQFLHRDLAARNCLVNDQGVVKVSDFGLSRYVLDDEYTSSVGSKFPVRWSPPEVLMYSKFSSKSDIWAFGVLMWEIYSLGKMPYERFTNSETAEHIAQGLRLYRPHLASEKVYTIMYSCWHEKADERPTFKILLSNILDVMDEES

Row | Structure (SMILES) | inhibition at 1 µM
1 | C=CC(=O)Nc1cc(NC2=NC(c3cccc(N(C)C)c3)C3SC=CC3=N2)c(OC)cc1N1CCC(C(=O)N(C)C)CC1 (centres unmarked) [Compound 16, 1-[4-[[4-[3-(dimethylamino)phenyl]-4,4a-dihydrothieno[3,2-d]pyrimidin-2-yl]amino]-5-methoxy-2-(prop-2-enoylamino)phenyl]-N,N-dimethyl-piperidine-4-carboxamide] | > 30%
2 | C=CC(=O)Nc1cc(NC2=NC(c3cccc(NC)c3)C3SC=CC3=N2)c(OC)cc1OCCN1CCCCC1 (centres unmarked) [Compound 15, N-[4-methoxy-5-[[4-[3-(methylamino)phenyl]-4,4a-dihydrothieno[3,2-d]pyrimidin-2-yl]amino]-2-[2-(1-piperidyl)ethoxy]phenyl]prop-2-enamide] | > 30%
3 | C=CC(=O)Nc1cc(N(C)c2nc(-c3cn(C)c4ccccc34)c3sccc3n2)c(OC)cc1N(C)CCN(C)C [Compound 54, N-[2-[2-(dimethylamino)ethyl-methyl-amino]-4-methoxy-5-[methyl-[4-(1-methylindol-3-yl)thieno[3,2-d]pyrimidin-2-yl]amino]phenyl]prop-2-enamide] | < 30%
4 | C=CC(=O)Nc1cc(Nc2nc(-c3ccc(NC(C)(C)C)cc3)c3sccc3n2)c(OC)cc1N1CCN(C)CC1 [Compound 27, N-[5-[[4-[4-(tert-butylamino)phenyl]thieno[3,2-d]pyrimidin-2-yl]amino]-4-methoxy-2-(4-methylpiperazin-1-yl)phenyl]prop-2-enamide] | > 30%
5 | C=CC(=O)Nc1cc(Nc2nc(-c3ccccc3NC)c3sccc3n2)c(OC)cc1N1CCN(C)CC1 [Compound 29, N-[4-methoxy-5-[[4-[2-(methylamino)phenyl]thieno[3,2-d]pyrimidin-2-yl]amino]-2-(4-methylpiperazin-1-yl)phenyl]prop-2-enamide] | < 30%
6 | C=CC(=O)Nc1cc(Nc2nc(-c3c[nH]c4ccccc34)c3sccc3n2)c(OC)cc1N1CCC(NC)CC1 [Compound 3, N-[5-[[4-(1H-indol-3-yl)thieno[3,2-d]pyrimidin-2-yl]amino]-4-methoxy-2-[4-(methylamino)-1-piperidyl]phenyl]prop-2-enamide] | > 30%
7 | C=CC(=O)Nc1cc(Nc2nc(-c3ccccc3)c3ccsc3n2)c(OC)cc1N1CCN(C)CC1 [Compound 42, N-[4-methoxy-2-(4-methylpiperazin-1-yl)-5-[(4-phenylthieno[2,3-d]pyrimidin-2-yl)amino]phenyl]prop-2-enamide] | < 30%
8 | C=CC(=O)Nc1cc(NC2=NC(c3cccc(NC(C)(C)C)c3)C3SC=CC3=N2)c(OC)cc1N1CCOCC1 (centres unmarked) [Compound 11, N-[5-[[4-[3-(tert-butylamino)phenyl]-4,4a-dihydrothieno[3,2-d]pyrimidin-2-yl]amino]-4-methoxy-2-morpholino-phenyl]prop-2-enamide] | > 30%
9 | C=CC(=O)Nc1cc(NC2=NC(c3cccc(NC)c3)C3SC=CC3=N2)c(OC)cc1N1CCC(C(=O)N(C)C)CC1 (centres unmarked) [Compound 17, 1-[5-methoxy-4-[[4-[3-(methylamino)phenyl]-4,4a-dihydrothieno[3,2-d]pyrimidin-2-yl]amino]-2-(prop-2-enoylamino)phenyl]-N,N-dimethyl-piperidine-4-carboxamide] | < 30%
10 | C=CC(=O)Nc1cc(NC2=NC(c3cccc(N(C)C)c3)C3SC=CC3=N2)c(OC)cc1N(C)C (centres unmarked) [Compound 4, N-[2-(dimethylamino)-5-[[4-[3-(dimethylamino)phenyl]-4,4a-dihydrothieno[3,2-d]pyrimidin-2-yl]amino]-4-methoxy-phenyl]prop-2-enamide] | > 30%
11 | C=CC(=O)Nc1cc(NC2=NC(c3cccc(N(C)C)c3)C3SC=CC3=N2)c(OC)cc1N(C)CCN1CCOCC1 (centres unmarked) [Compound 8, N-[5-[[4-[3-(dimethylamino)phenyl]-4,4a-dihydrothieno[3,2-d]pyrimidin-2-yl]amino]-4-methoxy-2-[methyl(2-morpholinoethyl)amino]phenyl]prop-2-enamide] | > 30%
12 | C=CC(=O)Nc1cc(NC2=NC(c3cccc(NC)c3)C3SC=CC3=N2)c(OC)cc1N1CCN(C)CC1 (centres unmarked) [Compound 7, N-[4-methoxy-5-[[4-[3-(methylamino)phenyl]-4,4a-dihydrothieno[3,2-d]pyrimidin-2-yl]amino]-2-(4-methylpiperazin-1-yl)phenyl]prop-2-enamide] | > 30%
13 | C=CC(=O)Nc1cc(Nc2nc(-c3cc[nH]c3)c3sccc3n2)c(OC)cc1N1CCN(C)CC1 [Compound 49, N-[4-methoxy-2-(4-methylpiperazin-1-yl)-5-[[4-(1H-pyrrol-3-yl)thieno[3,2-d]pyrimidin-2-yl]amino]phenyl]prop-2-enamide] | > 30%
14 | C=CC(=O)Nc1cc(Nc2nc(-c3c[nH]c4ccccc34)c3sccc3n2)c(OC)cc1N1CCOCC1 [Compound 23, N-[5-[[4-(1H-indol-3-yl)thieno[3,2-d]pyrimidin-2-yl]amino]-4-methoxy-2-morpholino-phenyl]prop-2-enamide] | > 30%
15 | C=CC(=O)Nc1cc(Nc2nc(-c3cn(C)c4ccccc34)c3sccc3n2)c(OC)cc1N(C)C [Compound 38, N-[2-(dimethylamino)-4-methoxy-5-[[4-(1-methylindol-3-yl)thieno[3,2-d]pyrimidin-2-yl]amino]phenyl]prop-2-enamide] | > 30%
16 | C=CC(=O)Nc1cc(Nc2nc(-c3ccn(C)c3)c3ccsc3n2)c(OC)cc1N1CCN(C)CC1 [Compound 46, N-[4-methoxy-2-(4-methylpiperazin-1-yl)-5-[[4-(1-methylpyrrol-3-yl)thieno[2,3-d]pyrimidin-2-yl]amino]phenyl]prop-2-enamide] | > 30%
17 | C=CC(=O)Nc1cc(Nc2nc(-c3ccc(NC)cc3)c3sccc3n2)c(OC)cc1N(C)CC [Compound 39, N-[2-[ethyl(methyl)amino]-4-methoxy-5-[[4-[4-(methylamino)phenyl]thieno[3,2-d]pyrimidin-2-yl]amino]phenyl]prop-2-enamide] | > 30%
18 | C=CC(=O)Nc1cc(Nc2nc(-c3c[nH]c4ccccc34)c3sccc3n2)c(OC)cc1N1CCN(C)CC1 [Compound 21, N-[5-[[4-(1H-indol-3-yl)thieno[3,2-d]pyrimidin-2-yl]amino]-4-methoxy-2-(4-methylpiperazin-1-yl)phenyl]prop-2-enamide] | > 30%
19 | C=CC(=O)Nc1cc(NC2=NC(c3cccc(N)c3)C3SC=CC3=N2)c(OC)cc1N1CCN(C)CC1 (centres unmarked) [Compound 19, N-[5-[[4-(3-aminophenyl)-4,4a-dihydrothieno[3,2-d]pyrimidin-2-yl]amino]-4-methoxy-2-(4-methylpiperazin-1-yl)phenyl]prop-2-enamide] | < 30%
20 | C=CC(=O)Nc1cc(Nc2nc(-c3cccc4ccn(C)c34)c3sccc3n2)c(OC)cc1N1CCN(C)CC1 [Compound 44, N-[4-methoxy-5-[[4-(1-methylindol-7-yl)thieno[3,2-d]pyrimidin-2-yl]amino]-2-(4-methylpiperazin-1-yl)phenyl]prop-2-enamide] | > 30%

Second part, the compound after the results:

Row | inhibition at 1 µM | Structure (SMILES)
21 | < 30% | C=CC(=O)Nc1cc(Nc2nc(-c3cc[nH]c3)c3ccsc3n2)c(OC)cc1N1CCN(C)CC1 [Compound 47, N-[4-methoxy-2-(4-methylpiperazin-1-yl)-5-[[4-(1H-pyrrol-3-yl)thieno[2,3-d]pyrimidin-2-yl]amino]phenyl]prop-2-enamide]
22 | > 30% | C=CC(=O)Nc1cc(NC2=NC(c3cccc(NC)c3)C3SC=CC3=N2)c(OC)cc1OCCN(C)C (centres unmarked) [Compound 13, N-[2-[2-(dimethylamino)ethoxy]-4-methoxy-5-[[4-[3-(methylamino)phenyl]-4,4a-dihydrothieno[3,2-d]pyrimidin-2-yl]amino]phenyl]prop-2-enamide]
23 | < 30% | C=CC(=O)Nc1cc(NC2=NC(c3cccc(OC)c3)C3SC=CC3=N2)c(OC)cc1N1CCC(N(C)C)CC1 (centres unmarked) [Compound 20, N-[2-[4-(dimethylamino)-1-piperidyl]-4-methoxy-5-[[4-(3-methoxyphenyl)-4,4a-dihydrothieno[3,2-d]pyrimidin-2-yl]amino]phenyl]prop-2-enamide]
24 | < 30% | C=CC(=O)Nc1cc(Nc2nc(-c3ccccc3NC)c3sccc3n2)c(OC)cc1N(C)CCN(C)C [Compound 31, N-[2-[2-(dimethylamino)ethyl-methyl-amino]-4-methoxy-5-[[4-[2-(methylamino)phenyl]thieno[3,2-d]pyrimidin-2-yl]amino]phenyl]prop-2-enamide]
25 | > 30% | C=CC(=O)Nc1cc(N(C)c2nc(-c3c[nH]c4ccccc34)c3sccc3n2)c(OC)cc1N(C)CCN(C)C [Compound 53, N-[2-[2-(dimethylamino)ethyl-methyl-amino]-5-[[4-(1H-indol-3-yl)thieno[3,2-d]pyrimidin-2-yl]-methyl-amino]-4-methoxy-phenyl]prop-2-enamide]
26 | < 30% | C=CC(=O)Nc1cc(Nc2nc(-c3ccccc3)c3ccsc3n2)c(OC)cc1N(C)CC [Compound 40, N-[2-[ethyl(methyl)amino]-4-methoxy-5-[(4-phenylthieno[2,3-d]pyrimidin-2-yl)amino]phenyl]prop-2-enamide]
27 | < 30% | C=CC(=O)Nc1cc(Nc2nc(-c3cccc4cc[nH]c34)c3sccc3n2)c(OC)cc1N1CCN(C)CC1 [Compound 45, N-[5-[[4-(1H-indol-7-yl)thieno[3,2-d]pyrimidin-2-yl]amino]-4-methoxy-2-(4-methylpiperazin-1-yl)phenyl]prop-2-enamide]
28 | > 30% | C=CC(=O)Nc1cc(Nc2nc(-c3ccn(C)c3)c3sccc3n2)c(OC)cc1N1CCN(C)CC1 [Compound 48, N-[4-methoxy-2-(4-methylpiperazin-1-yl)-5-[[4-(1-methylpyrrol-3-yl)thieno[3,2-d]pyrimidin-2-yl]amino]phenyl]prop-2-enamide]
29 | < 30% | C=CC(=O)Nc1cc(Nc2nc(-c3cn(C)c4ccccc34)c3sccc3n2)c(OC)cc1OCCN1CCOCC1 [Compound 34, N-[4-methoxy-5-[[4-(1-methylindol-3-yl)thieno[3,2-d]pyrimidin-2-yl]amino]-2-(2-morpholinoethoxy)phenyl]prop-2-enamide]
